Laboratory results from patent US20090318544A1, “CRYSTALLINE FORM OF (2S)-(-)-N-(6-CHLORO-2,3-DIHYDRO-BENZO[1,4]DIOXIN-2-YLMETHYL)-SULFAMIDE” (priority 2008, published 2009).

Key:
Format in all cases: physicochemical
[1] = TGA (Thermogravimetric Analysis) weight loss
Method: The weight loss for the sample was obtained using a TA Instruments TGA […] thermogravimetric calorimeter. The sample was analyzed as received and was program heated from ambient to 120° C. at 10° C./min under nitrogen purge.

[2] = DVS (Dynamic Vapor Sorption) cycling humidity, hygroscopicity; conditions: full cycle in step mode at 25° C., 0-90% RH in 10% RH increments
Method: (§1) A representative sample of crystalline form (IS-VI) was subjected to DVS (Dynamic Vapor Sorption) cycling humidity conditions to determine hydgroscopicity, as shown in FIG. 4. The sample was analyzed using a Surface Measurement System DVS-1 Dynamic Vapor Sorption System. The sample was analyzed full cycle in step mode at 25° C. from 0-90% RH in 10% RH increments. The equilibration conditions set were: dm/dt of 0.0007%/min, dm/dt window of 5 minutes, and minimum and maximum stages of 15 and 360 minutes. Data was collected in 1 minute intervals. Nitrogen was used as the carrier gas. The results from the DVS measurements indicate that crystalline form (IS-VI) is non-hygoscopic

[3] = Stability to temperature and humidity, concluded from DSC, TGA and DVS results; conditions: solid state; conclusion from the results above
Method: DSC (Differential Scanning Calorimetry) was measured for a representative sample of crystalline form (IS-VI), as shown in FIG. 2. DSC analysis of the sample was performed using a TA Instruments DSC Q1000 differential scanning calorimeter. The sample was analyzed as received in an open TA Instrument aluminum sample pan and was program heated from ambient to 120° C. at 10° C./min under nitrogen purge.
The weight loss for the sample was obtained using a TA Instruments TGA Q5000IR thermogravimetric calorimeter. The sample was analyzed as received and was program heated from ambient to 120° C. at 10° C./min under nitrogen purge.
as §1

SMILES: NS(=O)(=O)NC[C@H]1COc2cc(Cl)ccc2O1 [crystalline form (IS-VI), (2S)-(−)-N-(6-chloro-2,3-dihydro-benzo[1,4]dioxin-2-ylmethyl)-sulfamide]
- hydrate state indicated by TGA ([1]; ambient to 120° C. at 10° C./min under nitrogen purge): non-hydrate
- weight loss by TGA ([1]; heated from ambient to 120° C. at 10° C./min under nitrogen purge, ambient temperature up to and including melting): No weight loss was observed
- hygroscopicity by DVS [2]: non-hygoscopic
- stability to temperature and humidity [3]: exhibits stability to temperature and humidity
